Test results reported in patent US12336981B2, “Compounds and compositions for the inhibition of NAMPT” (Valo Health, Inc., priority 2010, dated 2025).
Like-named read-outs stand apart in the source and are kept apart here.

Key:
[1] = tested on: A2780 cells; assay: In-vitro cell proliferation assay (SRB), A2780 cells; format: cell-based; details: Homo sapiens, A2780, 72 h, A2780 cells, 72 hours, read-out: A2780 IC50
Procedure, shortened: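 Read-out is SRB absorbance at 570 nm on TCA-fixed cells after 72 hours of compound treatment at 37° C. in 5% CO2. Background from a media-only plate is subtracted, and % inhibition is interpolated between two tested concentrations.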

[2] = target: T1, NAMPT (Homo sapiens, UniProt P43490); assay: Biochemical inhibition assay: NAMPT enzymatic reaction, NMN quantified by mass spectrometry; details: read-out: Biochem IC50
T1 construct: His tag; host or cells: E. coli
T1 sequence (P43490 whole entry): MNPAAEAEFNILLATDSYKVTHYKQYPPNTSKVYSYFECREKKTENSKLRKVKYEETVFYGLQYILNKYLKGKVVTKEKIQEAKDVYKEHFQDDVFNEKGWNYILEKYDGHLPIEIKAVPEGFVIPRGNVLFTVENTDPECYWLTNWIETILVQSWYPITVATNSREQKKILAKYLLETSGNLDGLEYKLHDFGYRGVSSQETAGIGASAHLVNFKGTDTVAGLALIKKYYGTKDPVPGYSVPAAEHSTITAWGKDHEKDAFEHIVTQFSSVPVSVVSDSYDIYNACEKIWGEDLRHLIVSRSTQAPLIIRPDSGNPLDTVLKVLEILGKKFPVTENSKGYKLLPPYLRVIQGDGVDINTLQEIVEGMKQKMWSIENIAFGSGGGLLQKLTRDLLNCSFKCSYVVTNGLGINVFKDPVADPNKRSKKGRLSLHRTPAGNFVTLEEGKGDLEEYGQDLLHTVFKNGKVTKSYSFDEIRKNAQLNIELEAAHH
Procedure, shortened: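 Inhibition of E. coli-expressed His-tagged human NAMPT, measured as NMN formation by mass spectrometry after a 30 min room-temperature reaction containing 1 μM NAM, 100 μM PRPP and 2.5 mM ATP.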

| Compound | IC50 ([1]; SRB) [nM] | IC50 ([2]; NAMPT enzymatic assay) [nM] | IC50 ([1]; SRB assay) [nM] | IC50 ([2]; NAMPT enzymatic reaction) [nM] |
| --- | --- | --- | --- | --- |
| COc1ccc2cc(S(=O)(=O)c3ccc(CNC(=O)c4cc5cnccc5[nH]4)cc3)ccc2c1 [N-{[4-(6-methoxynaphthalene-2-sulfonyl)phenyl]methyl}-1H-pyrrolo[3,2-c]pyridine-2-carboxamide] | 5.1 | 9.9 |  |  |
| O=C(NCc1ccc(S(=O)(=O)c2cncc(N3CCCC3)c2)cc1)c1cc2cnccc2[nH]1 [N-({4-[5-(pyrrolidin-1-yl)pyridine-3-sulfonyl]phenyl}methyl)-1H-pyrrolo[3,2-c]pyridine-2-carboxamide] | 2 | 13.9 |  |  |
| CCCn1cc(S(=O)(=O)c2ccc(CNC(=O)c3ccc4nccn4c3)cc2)cn1 [N-{[4-(1-propyl-1H-pyrazole-4-sulfonyl)phenyl]methyl}imidazo[1,2-a]pyridine-6-carboxamide] | 5.2 | 4.9 |  |  |
| O=C(NCc1ccc(S(=O)(=O)c2cncc(C(F)(F)F)c2)cc1)c1cnc2[nH]ncc2c1 [N-({4-[5-(trifluoromethyl)pyridine-3-sulfonyl]phenyl}methyl)-1H-pyrazolo[3,4-b]pyridine-5-carboxamide] | 4 | 11 |  |  |
| CS(=O)(=O)c1ccc(S(=O)(=O)c2ccc(CNC(=O)c3cc4cnccc4[nH]3)cc2)cc1 [N-({4-[(4-methanesulfonylbenzene)sulfonyl]phenyl}methyl)-1H-pyrrolo[3,2-c]pyridine-2-carboxamide] |  |  | 12 | 24 |
| O=C(NCc1ccc(S(=O)(=O)c2ccc(F)c(F)c2)cc1)c1cc2ccncc2s1 [N-({4-[(3,4-difluorobenzene)sulfonyl]phenyl}methyl)thieno[2,3-c]pyridine-2-carboxamide] |  |  | 8.1 | 9 |
| COc1ccc(C(F)(F)F)cc1NS(=O)(=O)c1ccc(CNC(=O)c2cc3cnccc3[nH]2)cc1 [N-[(4-{[2-methoxy-5-(trifluoromethyl)phenyl]sulfamoyl}phenyl)methyl]-1H-pyrrolo[3,2-c]pyridine-2-carboxamide] |  |  | 1.6 | 0.5 |
| O=C(NCc1ccc(S(=O)(=O)c2cc(F)ccc2Cl)cc1)c1ccc2nccn2c1 | 6.3 |  |  | 21 |
| COc1cccc(S(=O)(=O)c2ccc(CNC(=O)c3cc4ccncc4o3)cc2)c1 | 6.9 |  |  | 3.5 |
| Cc1ccccc1S(=O)(=O)c1ccc(CNC(=O)c2ccc3nccn3c2)cc1 [N-({4-[(2-methylbenzene)sulfonyl]phenyl}methyl)imidazo[1,2-a]pyridine-6-carboxamide] | 91.2 |  |  | 66.9 |
| Cc1ccc(S(=O)(=O)c2ccc(CNC(=O)c3ccc4nccn4c3)cc2)cc1 [N-({4-[(4-methylbenzene)sulfonyl]phenyl}methyl)imidazo[1,2-a]pyridine-6-carboxamide] | 12 |  |  | 17.6 |
| Cc1ccc(F)cc1S(=O)(=O)c1ccc(CNC(=O)c2cnc3nccn3c2)cc1 | 35.1 | 2.7 |  |  |
| O=C(NCc1ccc(S(=O)(=O)c2cccc(C(=O)NC3CCCC3)c2)cc1)c1cnc2nccn2c1 | 48.3 | 4.7 |  |  |
| Cc1cc(Cl)ccc1S(=O)(=O)c1ccc(CNC(=O)c2cnc3nccn3c2)cc1 | 53.9 |  |  | 6.6 |
| O=C(NCc1ccc(S(=O)(=O)c2cc(F)cc(Cl)c2)cc1)c1cc2ccncc2o1 | 3.1 |  |  | 17.8 |
| CC(C)(C)c1cccc(S(=O)(=O)c2ccc(CNC(=O)c3cc4ccncc4o3)cc2)c1 | 7 |  |  | 9.3 |
| COc1cc(F)ccc1S(=O)(=O)c1ccc(CNC(=O)c2cc3cnccc3[nH]2)cc1 [N-({4-[(4-fluoro-2-methoxybenzene)sulfonyl]phenyl}methyl)-1H-pyrrolo[3,2-c]pyridine-2-carboxamide] |  |  | 7 | 31 |
| Cc1nc(-c2cccc(S(=O)(=O)c3ccc(CNC(=O)c4cnc5nccn5c4)cc3)c2)no1 | 2.3 | 2.8 |  |  |
| Cc1cc(C)cc(S(=O)(=O)c2ccc(CNC(=O)c3cc4cnccc4[nH]3)cc2)c1 [N-({4-[(3,5-dimethylbenzene)sulfonyl]phenyl}methyl)-1H-pyrrolo[3,2-c]pyridine-2-carboxamide] |  |  | 2 | 9 |
| O=C(NCc1ccc(S(=O)(=O)c2ccc(-n3cccn3)cc2F)cc1)c1cc2ccncc2o1 | 8 | 18.4 |  |  |
| O=C(NCc1ccc(S(=O)(=O)c2cc(F)cc(C(F)(F)F)c2)cc1)c1cc2cnccc2[nH]1 | 3.6 | 26.2 |  |  |
| O=C(NCc1ccc(S(=O)(=O)c2cc(F)ccc2Cl)cc1)c1cnc2nccn2c1 | 53 |  |  | 10.5 |
| CCCCOc1ccc(S(=O)(=O)c2ccc(CNC(=O)c3cnc4[nH]ncc4c3)cc2)cc1Cl | 11.1 |  |  | 4.5 |

| Compound | IC50 ([1]; SRB) [nM] | IC50 ([2]; NAMPT enzymatic assay) [nM] | IC50 ([1]; SRB assay) [nM] | IC50 ([2]; NAMPT enzymatic reaction) [nM] |
| --- | --- | --- | --- | --- |
| Cc1cccc(S(=O)(=O)c2ccc(CNC(=O)c3cc4ccncc4s3)cc2)c1 [N-({4-[(3-methylbenzene)sulfonyl]phenyl}methyl)thieno[2,3-c]pyridine-2-carboxamide] |  |  | 2.3 | 4 |
| Cc1ccc(S(=O)(=O)c2ccc(CNC(=O)c3cc4ccncc4o3)cc2)cc1 [N-({4-[(4-methylbenzene)sulfonyl]phenyl}methyl)furo[2,3-c]pyridine-2-carboxamide] | 6 |  |  | 121 |
| O=C(NCc1ccc(S(=O)(=O)c2ccccc2Oc2ccccc2)cc1)c1cnc2nccn2c1 | 100 to 1000 |  |  | 8.5 |
| Cn1cc2ccc(S(=O)(=O)c3ccc(CNC(=O)c4ccc5nccn5c4)cc3)cc2n1 [N-{[4-(2-methyl-2H-indazole-6-sulfonyl)phenyl]methyl}imidazo[1,2-a]pyridine-6-carboxamide] | 1.7 | 1.9 |  |  |
| Cc1cn(C)c(S(=O)(=O)c2ccc(CNC(=O)c3ccc4nccn4c3)cc2)n1 [N-{[4-(1,4-dimethyl-1H-imidazole-2-sulfonyl)phenyl]methyl}imidazo[1,2-a]pyridine-6-carboxamide] | 95.4 | 100 to 1000 |  |  |
| O=C(NCc1ccc(S(=O)(=O)c2cncc(Cl)c2)cc1)c1cnc2[nH]ncc2c1 [N-{[4-(5-chloropyridine-3-sulfonyl)phenyl]methyl}-1H-pyrazolo[3,4-b]pyridine-5-carboxamide] | 6.2 | 23.8 |  |  |
| O=C(NCc1ccc(S(=O)(=O)c2ccc(C3CCCCC3)cc2)cc1)c1ccc2nccn2c1 | 11.7 |  |  | 17.8 |
| O=C(NCc1ccc(S(=O)(=O)c2ccccc2)cc1)c1nc2cnccc2[nH]1 [N-{[4-(benzenesulfonyl)phenyl]methyl}-1H-imidazo[4,5-c]pyridine-2-carboxamide] |  |  | 5370 | 7060 |
| O=C(NCc1ccc(S(=O)(=O)c2ccc(OCC(F)(F)F)c(F)c2)cc1)c1cc2ccncc2o1 | 23.8 | 6.9 |  |  |
| CCCOc1ccc(S(=O)(=O)c2ccc(CNC(=O)c3cnc4nccn4c3)cc2)cc1Cl | 2.4 |  |  | 3.9 |
| COc1ccc(F)c(S(=O)(=O)c2ccc(CNC(=O)c3cc4cnccc4[nH]3)cc2)c1 | 14.4 |  |  | 77.8 |
| CN1CCN(c2ccc(S(=O)(=O)c3ccc(CNC(=O)c4cc5cnccc5[nH]4)cc3)cn2)CC1 [N-({4-[6-(4-methylpiperazin-1-yl)pyridine-3-sulfonyl]phenyl}methyl)-1H-pyrrolo[3,2-c]pyridine-2-carboxamide] | 0.6 | 6 |  |  |
| Cn1ncc2cccc(S(=O)(=O)c3ccc(CNC(=O)c4cnc5[nH]ncc5c4)cc3)c21 [N-{[4-(1-methyl-1H-indazole-7-sulfonyl)phenyl]methyl}-1H-pyrazolo[3,4-b]pyridine-5-carboxamide] | 86.9 | 91.8 |  |  |
| COc1ccc(Cl)cc1S(=O)(=O)c1ccc(CNC(=O)c2cnc3[nH]ncc3c2)cc1 | 8.1 |  |  | 49.2 |
| COc1cc(C)cc(S(=O)(=O)c2ccc(CNC(=O)c3cc4cnccc4[nH]3)cc2)c1OC [N-({4-[(2,3-dimethoxy-5-methylbenzene)sulfonyl]phenyl}methyl)-1H-pyrrolo[3,2-c]pyridine-2-carboxamide] | 2 | 10 |  |  |
| CCOc1ccc(-c2ccc(S(=O)(=O)c3ccc(CNC(=O)c4cc5cnccc5[nH]4)cc3)cc2)cc1 [N-[(4-{[4-(4-ethoxyphenyl)benzene]sulfonyl}phenyl)methyl]-1H-pyrrolo[3,2-c]pyridine-2-carboxamide] | 9 | 9 |  |  |
| COc1ccc(F)c(S(=O)(=O)c2ccc(CNC(=O)c3cc4ccncc4s3)cc2)c1 | 12.8 |  |  | 2.3 |
| COc1ccc(S(=O)(=O)c2ccc(CNC(=O)c3cc4ccncc4o3)cc2)c(C(F)(F)F)c1 | 15.2 | 14.6 |  |  |
| O=C(NCc1ccc(S(=O)(=O)c2ccc3c(c2)OCCO3)cc1)c1cc2ccncc2s1 [N-{[4-(2,3-dihydro-1,4-benzodioxine-6-sulfonyl)phenyl]methyl}thieno[2,3-c]pyridine-2-carboxamide] |  |  | 2.7 | 4 |
| CN(C)c1ccc(S(=O)(=O)c2ccc(CNC(=O)c3ccc4nccn4c3)cc2)cn1 [N-({4-[6-(dimethylamino)pyridine-3-sulfonyl]phenyl}methyl)imidazo[1,2-a]pyridine-6-carboxamide] | 2.7 | 44.9 |  |  |
| Cn1cc2cc(S(=O)(=O)c3ccc(CNC(=O)c4cnc5nccn5c4)cc3)ccc2n1 [N-{[4-(2-methyl-2H-indazole-5-sulfonyl)phenyl]methyl}imidazo[1,2-a]pyrimidine-6-carboxamide] | 8.2 | 1.2 |  |  |
| CC(=O)c1ccccc1NS(=O)(=O)c1ccc(CNC(=O)c2cc3cnccc3[nH]2)cc1 [N-({4-[(2-acetylphenyl)sulfamoyl]phenyl}methyl)-1H-pyrrolo[3,2-c]pyridine-2-carboxamide] |  |  | 5 | 5 |
